Values joined by “and” are separate entries in the source; they are usually repeats but may differ in a detail not shown here. Equal values may be shown once. Where a name gives a salt, the structure may show the parent alone. Read-outs that look alike come from different tables or passages of the source.
Key:
platelet aggregation = experiment: animal or person; assay type: in vivo; conditions: Rattus norvegicus, read-out: Aggregation inhibition (%)
Excerpt: The positive control and the test compounds (prepared in the above examples) were formulated in 0.5% CMC-Na (carboxymethylcellulose sodium) into suspensions for administration to animals.
Animals: male SD rats, weighed about 250 g, and supplied by Shanghai Super-B&K Laboratory Animal Corp. Ltd. Animal certificate No.: 2008001605451, and license No.: SCXK (Hu); SCXK (Hu) 2008-0016.
Instruments: a centrifuge (80-2 bench top low-speed centrifuge), an automatic platelet aggregation tester (STELLEXLG-PAPER-I platelet coagulation/aggregation analyzer), and others.
Methods: the pharmacological activity test of the compounds of the present invention for platelet aggregation was performed following Born's turbidimetric method (Nature, 1962, 194(4832): 927). An agglomeration-promoting substance, adenosine diphosphate (ADP), was added to a platelet rich plasma (PRP), and stirred to allow platelets to aggregate. […] This experiment can be used to evaluate the platelet aggregation effect induced by the test compounds administrated in-vivo or in-vitro.
The PRP was adjusted with a platelet poor plasma (PPP) to maintain the platelet counts at […]. The PRP was taken into a test cup, and incubated at 37° C. for 10 min. Light transmission was adjusted to 0% with PRP and to 100% with PPP for each measurement. By using ADP (with a final concentration of 5 μM) as an inducer, the platelet aggregation percentages were measured through the turbidimetric method using a platelet aggregation tester, and statistically compared by t-test. The platelet aggregation inhibition was calculated by the equation: platelet aggregation inhibition (%)=[1−(aggregation percent in dosed tube/aggregation percent in control tube)]×100%.

[1] = Pharmacokinetics and bioavailability of Compound I-2 in rats (plasma Compound IV-1 by LC-MS/MS); assay type: in vivo, rat; conditions: for Concentration of Compound IV-1 in plasma, single animals / concentration at 0.08 h / concentration at 0.167 h / concentration at 0.5 h / concentration at 1 h / concentration at 2 h / concentration at 4 h / concentration at 6 h: intravenous injection 8 μmol/kg; for concentration at 0.08 h / concentration at 0.167 h / concentration at 0.5 h / concentration at 1 h / concentration at 2 h / concentration at 4 h / concentration at 6 h: 8 μmol/kg
Excerpt: The rats were fasted overnight, but allowed free access to water.

[2] = male SD rats, oral gavage 3 mg/kg, blood after 2 hrs, ADP 5 μM
[3] = SD rats, intravenous injection 8 μmol/kg (2.7 mg/kg), individual animal
[4] = male SD rats, oral gavage 10 mg/kg, blood after 2 hrs, ADP 5 μM

COC(=O)[C@H](c1ccccc1Cl)N1CCc2sc(OC(=O)OCC(C)C)cc2C1 [Compound I-15, (S)-Methyl 2-(2-(isobutoxycarbonyloxy)-6,7-dihydrothieno[3,2-c]pyridin-5(4H)-yl)-2-(2-chlorophenyl)-acetate]
inhibition at 3 mg/kg (platelet aggregation; [2]): 45.3%

CCCC(=O)Oc1cc2c(s1)CCN([C@H](C(=O)OC)c1ccccc1Cl)C2 [Compound I-4, (S)-methyl 2-(2-butanoyloxy-6,7-dihydrothieno[3,2-c]pyridin-5 (4H)-yl)-2-(2-chlorophenyl)-acetate]
inhibition at 3 mg/kg (platelet aggregation; [2]): 46.2%

COC(=O)[C@H](c1ccccc1Cl)N1CCc2sc(OC(=O)C(C)(C)C)cc2C1 [Compound I-7, (S)-methyl 2-(2-pivaloyloxy-6,7-dihydrothieno[3,2-c]pyridin-5(4H)-yl)-2-(2-chlorophenyl)-acetate]
inhibition at 3 mg/kg (platelet aggregation; [2]): 41.9%

COC(=O)[C@H](c1ccccc1Cl)N1CCc2sc(OC(=O)Cc3ccccc3)cc2C1 [Compound I-12, (S)-Methyl 2-(2-phenylacetoxy-6,7-dihydrothieno[3,2-c]pyridin-5(4H)-yl)-2-(2-chlorophenyl)-acetate]
inhibition at 3 mg/kg (platelet aggregation; [2]): 18.3%

COC(=O)[C@H](c1ccccc1)N1CCc2sc(OC(C)=O)cc2C1 [Compound I-21, (S)-Methyl 2-(2-acetoxy-6,7-dihydrothieno[3,2-c]pyridin-5 (4H)-yl)-2-phenyl-acetate]
inhibition at 3 mg/kg (platelet aggregation; [2]): 9.1%

COC(=O)[C@H](c1ccccc1Cl)N1CCC2SC(=O)C=C2C1 (stereo partly drawn) [IV-1, (2S)-Methyl 2-(2-oxo-7,7a-dihydrothieno[3,2-c]pyridin-5 (2H,4H,6H)-yl)-2-(2-chlorophenyl)-acetate]
AUC0-t of Compound IV-1, single animals [1, 3]: 304 ng·h/mL and 229 ng·h/mL | AUC0-∞ of Compound IV-1, single animals [1, 3]: 306 ng·h/mL and 229 ng·h/mL | CLtot of Compound IV-1, single animals [1, 3]: 147 mL/min/kg and 197 mL/min/kg | Cmax of Compound IV-1, single animals [1, 3]: 785 ng/mL and 533 ng/mL | V2 of Compound IV-1, single animals [1, 3]: 18.8 L/kg and 15.9 L/kg and 10.9 L/kg | t1/2 of Compound IV-1, single animals [1, 3]: 78 min and 75 min and 38.6 min | V2 of Compound IV-1, Mean ([1]; SD rats, intravenous injection 8 μmol/kg (2.7 mg/kg), mean of 3): 15.2 L/kg | Concentration of Compound IV-1 in plasma, single animals ([1]; SD rats, 0.08 h, individual animal): 785 ng/mL and 533 ng/mL | Concentration of Compound IV-1 in plasma, single animals ([1]; SD rats, 0.167 h, individual animal): 417 ng/mL and 311 ng/mL | Concentration of Compound IV-1 in plasma, single animals ([1]; SD rats, 0.5 h, individual animal): 129 ng/mL and 107 ng/mL | Concentration of Compound IV-1 in plasma, single animals ([1]; SD rats, 1 h, individual animal): 49.3 ng/mL and 37.3 ng/mL | Concentration of Compound IV-1 in plasma, single animals ([1]; SD rats, 2 h, individual animal): 9.06 ng/mL and 9.74 ng/mL | Concentration of Compound IV-1 in plasma, single animals ([1]; SD rats, 4 h, individual animal): 2.87 ng/mL and 2.02 ng/mL | Concentration of Compound IV-1 in plasma, single animals ([1]; SD rats, 6 h, individual animal): 0.977 ng/mL and 1.06 ng/mL | AUC(0-t) ([1]; male, SD, rat, plasma, iv, 2.7 mg/kg, intravenous injection 8 μmol/kg (2.7 mg/kg), individual animal, read-out: AUC0-t of Compound IV-1, single animals): 266 ng·h/mL | AUC(0-inf) ([1]; male, SD, rat, plasma, iv, 2.7 mg/kg, intravenous injection 8 μmol/kg (2.7 mg/kg), individual animal, read-out: AUC0-∞ of Compound IV-1, single animals): 269 ng·h/mL | clearance ([1]; male, SD, rat, plasma, iv, 2.7 mg/kg, intravenous injection 8 μmol/kg (2.7 mg/kg), individual animal, read-out: CLtot of Compound IV-1, single animals (converted)): 167 mL/min/kg | Cmax ([1]; male, SD, rat, plasma, iv, 2.7 mg/kg, intravenous injection 8 μmol/kg (2.7 mg/kg), individual animal, read-out: Cmax of Compound IV-1, single animals): 696 ng/mL | clearance ([1]; male, SD, rat, plasma, iv, 2.7 mg/kg, intravenous injection 8 μmol/kg (2.7 mg/kg), mean of 3, read-out: CLtot of Compound IV-1, Mean (converted)): 170 mL/min/kg | Tmax ([1]; male, Sprague-Dawley, rat, plasma, 8 umol/kg, SD rats, intravenous injection 8 μmol/kg (2.7 mg/kg), mean of 3, read-out: Tmax of Compound IV-1, Mean): 4.98 min | AUC(0-t) ([1]; male, Sprague-Dawley, rat, plasma, iv, 8 umol/kg, SD rats, intravenous injection 8 μmol/kg (2.7 mg/kg), mean of 3, read-out: AUC0-t of Compound IV-1, Mean): 266 ± 37.6 ng·h/mL | AUC(0-inf) ([1]; male, Sprague-Dawley, rat, plasma, iv, 8 umol/kg, SD rats, intravenous injection 8 μmol/kg (2.7 mg/kg), mean of 3, read-out: AUC0-∞ of Compound IV-1, Mean): 268 ± 38.3 ng·h/mL | Cmax ([1]; male, Sprague-Dawley, rat, plasma, iv, 8 umol/kg, SD rats, intravenous injection 8 μmol/kg (2.7 mg/kg), mean of 3, read-out: Cmax of Compound IV-1, Mean): 671 ± 128 ng/mL | half-life ([1]; male, Sprague-Dawley, rat, plasma, iv, 8 umol/kg, SD rats, intravenous injection 8 μmol/kg (2.7 mg/kg), mean of 3, read-out: t1/2 of Compound IV-1, Mean (converted)): 63.6 ± 21.8 min | concentration at 0.08 h ([1]; male, Sprague-Dawley, rat, plasma, iv, SD rats, 0.08 h, individual animal, read-out: Concentration of Compound IV-1 in plasma, single animals): 696 ng/mL | concentration at 0.08 h ([1]; male, Sprague-Dawley, rat, plasma, iv, SD rats, 0.08 h, mean of 3, read-out: Concentration of Compound IV-1 in plasma, Mean): 671 ng/mL | concentration at 0.167 h ([1]; male, Sprague-Dawley, rat, plasma, iv, SD rats, 0.167 h, individual animal, read-out: Concentration of Compound IV-1 in plasma, single animals): 317 ng/mL | concentration at 0.167 h ([1]; male, Sprague-Dawley, rat, plasma, iv, SD rats, 0.167 h, mean of 3, read-out: Concentration of Compound IV-1 in plasma, Mean): 348 ng/mL | concentration at 0.5 h ([1]; male, Sprague-Dawley, rat, plasma, iv, SD rats, 0.5 h, individual animal, read-out: Concentration of Compound IV-1 in plasma, single animals): 108 ng/mL | concentration at 0.5 h ([1]; male, Sprague-Dawley, rat, plasma, iv, SD rats, 0.5 h, mean of 3, read-out: Concentration of Compound IV-1 in plasma, Mean): 115 ng/mL | concentration at 1 h ([1]; male, Sprague-Dawley, rat, plasma, iv, SD rats, 1 h, individual animal, read-out: Concentration of Compound IV-1 in plasma, single animals): 51 ng/mL | concentration at 1 h ([1]; male, Sprague-Dawley, rat, plasma, iv, SD rats, 1 h, mean of 3, read-out: Concentration of Compound IV-1 in plasma, Mean): 45.9 ng/mL | concentration at 2 h ([1]; male, Sprague-Dawley, rat, plasma, iv, SD rats, 2 h, individual animal, read-out: Concentration of Compound IV-1 in plasma, single animals): 10.9 ng/mL | concentration at 2 h ([1]; male, Sprague-Dawley, rat, plasma, iv, SD rats, 2 h, mean of 3, read-out: Concentration of Compound IV-1 in plasma, Mean): 9.9 ng/mL | concentration at 4 h ([1]; male, Sprague-Dawley, rat, plasma, iv, SD rats, 4 h, individual animal, read-out: Concentration of Compound IV-1 in plasma, single animals): 3.94 ng/mL | concentration at 4 h ([1]; male, Sprague-Dawley, rat, plasma, iv, SD rats, 4 h, mean of 3, read-out: Concentration of Compound IV-1 in plasma, Mean): 2.94 ng/mL | concentration at 6 h ([1]; male, Sprague-Dawley, rat, plasma, iv, SD rats, 6 h, individual animal, read-out: Concentration of Compound IV-1 in plasma, single animals): 1.29 ng/mL | concentration at 6 h ([1]; male, Sprague-Dawley, rat, plasma, iv, SD rats, 6 h, mean of 3, read-out: Concentration of Compound IV-1 in plasma, Mean): 1.11 ng/mL | Tmax ([1]; male, rat, plasma, SD rats, intravenous injection 8 μmol/kg (2.7 mg/kg), individual animal, read-out: Tmax of Compound IV-1, single animals): 4.98 min

COC(=O)[C@H](c1ccccc1Cl)N1CCc2sccc2C1 [Clopidogrel sulfate, reference compound]
inhibition at 3 mg/kg (platelet aggregation; po, 2 h): 15.4% | inhibition at 10 mg/kg (platelet aggregation; po, 2 h): 79.6%

COC(=O)[C@H](c1ccccc1Cl)N1CCc2sc(OC(C)=O)cc2C1 [Compound I-2, (S)-Methyl 2-(2-acetoxy-6,7-dihydrothieno[3,2-c]pyridin-5(4H)-yl)-2-(2-chlorophenyl)-acetate]
inhibition at 3 mg/kg (platelet aggregation; [2]): 69.9% | inhibition at 10 mg/kg (platelet aggregation; [4]): 83.5%

COC(=O)[C@H](c1ccccc1Cl)N1CCc2sc(OC(=O)OC(C)C)cc2C1 [Compound I-16, (S)-Methyl 2-(2-(isopropoxycarbonyloxy)-6,7-dihydrothieno[3,2-c]pyridin-5(4H)-yl)-2-(2-chlorophenyl)-acetate]
inhibition at 3 mg/kg (platelet aggregation; [2]): 52.7%

COC(=O)C(c1ccccc1Cl)N1CCc2sc(OC(C)=O)cc2C1 (racemic) [I-2″, (R,S)-Methyl 2-(2-acetoxy-6,7-dihydrothieno[3,2-c]pyridin-5(4H)-yl)-2-(2-chlorophenyl)-acetate]
inhibition at 3 mg/kg (platelet aggregation; [2]): 43.9% | inhibition at 10 mg/kg (platelet aggregation; [4]): 78.5%

CCC(=O)Oc1cc2c(s1)CCN([C@H](C(=O)OC)c1ccccc1Cl)C2 [Compound I-3, (S)-Methyl 2-(2-propanoyloxy-6,7-dihydrothieno[3,2-c]pyridin-5(4H)-yl)-2-(2-chlorophenyl)-acetate]
inhibition at 3 mg/kg (platelet aggregation; [2]): 38.4%

COC(=O)C(c1ccccc1Cl)N1CCc2sc(OC(=O)N(C)C)cc2C1 (racemic) [I-18′, (R,S)-Methyl 2-(2-(N,N-dimethylcarbamoyloxy)-6,7-dihydrothieno[3,2-c]pyridin-5(4H)-yl)-2-(2-chlorophenyl)-acetate]
inhibition at 3 mg/kg (platelet aggregation; po, 2 h): 29.8%
